Experimental data taken from patent US10138469B2, “Synthetic peptide and use thereof” (Toagosei Co., Ltd., priority 2014, dated 2018).

What was measured:
[1] = tested on: CCD1079SK cells; experiment: Evaluation of the state of undifferentiation of SIRIUS cells by cytoimmunostaining of undifferentiated marker genes; format: cell-based, human; settings: sample 1 20 μM, 30° C., 3 days; fluorescent immunostaining
Protocol: The state of undifferentiation of the SIRIUS cells (cells forming clusters) produced using the sample 1 obtained in example 1 was evaluated by cytoimmunostaining (fluorescent immunostaining) of the state of expression of undifferentiated marker genes (endogenous Oct3/4, Nanog, Sox2, TRA1-81, SSEA-3, and ALP), i.e., the state of expression of protein that is a gene product of these genes (this protein is also referred to as “undifferentiated marker protein” below). The details of the evaluation test are as follows.
The SIRIUS cells according to this working example were produced by culture under the same conditions as the culture conditions given in example 1 of Working Example 2 with the following exceptions: a cell culture chamber having 1 well per slide (culture area of 19 mm×44 mm) (also referred to as a slide chamber) was used as the culture chamber, 1.5×10^5 cells/well was used for the number of cells per well; and 1 mL was used for the amount of medium per well. The status of differentiation of the SIRIUS cells was evaluated by cytoimmunostaining as follows on the 3rd day after the start of the main culture (culture in the presence of peptide).
Fixing, a permeabilization treatment, and a blocking treatment were first carried out on the cells in each test group. Specifically, the medium was removed from the culture chamber (slide chamber) in each test group once the culture for 3 days in the presence of peptide had been completed and the cells in each slide chamber were washed with cold PBS. PBS containing 4 volume % paraformaldehyde (4% paraformaldehyde solution) was then added to the slide chamber and the cells were fixed by standing for 15 minutes on ice. After the prescribed time had elapsed, the 4% paraformaldehyde solution was removed and the cells in the slide chamber were washed with cold PBS.
PBS containing 0.25 volume % Triton (registered trademark) X-100 (0.25% Triton (registered trademark) X-100 solution) was then added to each slide chamber and a permeabilization treatment was carried out on the cell membrane by standing for 15 minutes on ice. After the prescribed time had elapsed, the 0.25% Triton (registered trademark) X-100 solution was removed and the cells in the slide chamber were washed with cold PBS.
PBS containing 1% BSA (1% BSA-containing PBS) was added to each slide chamber and a blocking treatment was carried out for 1 hour at room temperature. After the prescribed time had elapsed, the 1% BSA-containing PBS was removed and the cells in the slide chamber were washed with cold PBS.
The primary antibodies (primary antibody dilution)—obtained by the dilution at the prescribed ratio (dilution ratio shown in Table 2) with 0.1% BSA/PBS of primary antibody that recognized the particular undifferentiated marker protein—were respectively added to the slide chambers and standing was carried out overnight (approximately 16 to 18 hours) at 4° C. After the prescribed time had elapsed, the primary antibody dilution was removed and washing with cold PBS was performed.
Table 2 gives the undifferentiation markers used to evaluate the status of expression in this working example, the details for the primary antibody (product name, product number, immunized animal, antibody class) used to recognize the particular undifferentiated marker protein, and the dilution ratio for the primary antibody. Of the primary antibodies given in Table 2, the anti-Oct3/4 antibody was from Santa Cruz Biotechnology, Inc. and the anti-Nanog antibody, anti-Sox2 antibody, anti-TRA1-81 antibody, anti-SSEA-3 antibody, and anti-ALP antibody were from Abcam plc.
Secondary antibody (secondary antibody dilution)—obtained by the 1000× dilution with 0.1% BSA/PBS of a secondary antibody that detected the particular primary antibody—was added to the slide chamber and standing was carried out in the dark for 2 hours at room temperature. After the prescribed time had elapsed, the secondary antibody dilution was removed and washing with cold PBS was performed. […]

[2] = tested on: CCD1079SK cells; experiment: Production of SIRIUS cells: cluster formation and cell morphology of fibroblasts cultured with peptide (phase-contrast microscopy); format: cell-based, human; settings: for cell morphology in the culture: days 1 to 6
From the text: SIRIUS cells were produced using the sample 1 obtained in Working Example 1. CCD1079SK cells (ATCC (registered trademark) CRL-2097), which are a fibroblast cell culture line derived from human skin tissue, were used as the sample cells. The details of the tests are as follows.
The CCD1079SK cells, which had been stored frozen, were inoculated to six culture dishes with a diameter of 60 mm (60 mm dishes) to provide a cell density of 3×10^5 cells/well. Specifically, the thawed CCD1079SK cells were first suspended in ordinary Dulbecco's modified Eagle's medium (DMEM medium) to produce a cell suspension having a cell density of 1.5×10^5 cells/mL and 2 mL of this cell suspension was introduced into the 60 mm dish. This DMEM medium contained 10% FBS, 100 units/mL of penicillin, and 100 μg/mL of streptomycin in ordinary DMEM (Wako Pure Chemical Industries, Ltd., Cat. No. 043-30085).
The CCD1079SK cells inoculated into the 60 mm dish were precultured for several hours (approximately 6 hours) in an incubator under conditions of 5% CO2 and 37° C.
After the preculture for several hours, the CCD1079SK cells were subjected to a main culture at one of the culture conditions indicated for examples 1 to 6 in Table 1. The specific culture conditions are given in the following. […]
The culture conditions according to example 5 are as follows: the stock solution of sample 1 is added, in an amount that provides a peptide concentration in the medium of 20 μM, to the DMEM medium (in the 60 mm dish) on which the CCD1079SK cells are being cultured, and culture is carried out under a temperature condition of 13° C. […]
Other than the culture temperature and the presence/absence of peptide addition, the same culture conditions were used in all of examples 1 to 6. Thus, in all of examples 1 to 6, culture was carried out in a 5% CO2 atmosphere using a DMEM medium with the same composition (same as that used in the preculture). In addition, in all of examples 1 to 6, culture exchange and peptide addition (addition of PBS (−) in the peptide-free groups) were carried out every two days after the start of the main culture.
Observation of the cell morphology using a phase-contrast microscope was carried out in each example on the 1st, 2nd, 3rd, 4th, 5th, 6th, 7th, 9th, 13th, 21st, 27th, and 34th days after the start of the main culture (cell culture in the presence of peptide). Among the images in FIG. 2, the micrographs given for example 3 are micrographs (images) showing cell aggregates (clusters) that were rarely identified when tests were independently repeated a plurality of times using the same conditions as in example 3.

[3] = example 2: sample 1 20 μM, 37° C.

## CKSKSRRSC [sample 1]
[1]
  expression of undifferentiated marker gene ALP by cells constituting the clusters: strongly expressed
  expression of undifferentiated marker gene Nanog by cells constituting the clusters: strongly expressed
  expression of undifferentiated marker gene Oct3/4 by cells constituting the clusters: strongly expressed
  expression of undifferentiated marker gene SSEA-3 by cells constituting the clusters: strongly expressed
  expression of undifferentiated marker gene Sox2 by cells constituting the clusters: strongly expressed
  expression of undifferentiated marker gene TRA1-81 by cells constituting the clusters: strongly expressed
[2]; example 1: sample 1 20 μM, 30° C., 60 mm dish
  time to formation of aggregates (clusters) of aggregated cells after the start of the main culture: ≤ 3 days
[2]; example 1 conditions: 20 μM, 30° C., 26 times in 27 tests
  probability that at least 1 cluster was formed in the 60 mm dish within the 3rd day after the start of culture: at least 95%
[2]; example 1 conditions: 20 μM, 30° C., within the 3rd day
  number (frequency) of clusters formed per one 60 mm dish, average: 3
[2]; [3]
  formation of cell aggregates (clusters) within 3 days after the start of the main culture: did not form, or their formation frequency was very low
  persistence of the rarely observed clusters: disappeared by the 34th day
[2]; example 5: sample 1 20 μM, 13° C.
  cell morphology in the culture: very close to a dead cell morphology
[2]; example 6: sample 1 20 μM, 22° C.
  cell morphology in the culture: very close to a dead cell morphology
